For one series, the system named is Bmi-1 protein. The series can be described thus: Sandwich ELISA Assay (Bmi-1 protein level in HT-1080 cells after compound treatment). In kind it is cell-based. Conditions: Table 1, Bmi-1 sandwich ELISA, read-out: ELISA EC50 value for Bmi-1 protein. A digest of the protocol: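 HT-1080 cells exposed to compounds for 40–48 h at 37 °C (0.5% DMSO final), then lysed. Bmi-1 in lysates measured by sandwich ELISA (mouse monoclonal capture, rabbit anti-Bmi-1 detection, HRP anti-rabbit, TMB), read at OD450 with OD570 reference against a recombinant Bmi-1 standard curve (0–8000 pg/mL).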
(ELISA stands for enzyme-linked immunosorbent assay.)

Molecules are shown by their SMILES.

On to `Cc1ccc(Nc2cc(C#N)cc(-c3c(C)nc4ccc(F)cn34)n2)cc1` [compound 648, 2-(6-fluoro-2-methylimidazo[1,2-a]pyridin-3-yl)-6-[(4-methylphenyl)amino}pyridine-4-carbonitrile], for which the melting point (in general, the temperature of the solid-liquid transition) fell in the range of 185 to 188 °C. Moreover, the EC50 – broadly, the concentration giving half of the maximal effect – with Bmi-1 protein was in the range of 1 to 10 nM.
Compound `COc1ccc(Nc2cc(C#N)cc(-c3c(C)nc4ccc(F)cn34)n2)cc1` [compound 649, 2-(6-fluoro-2-methylimidazo[1,2-a]pyridin-3-yl)-6-[(4-methoxyphenyl)amino}pyridine-4-carbonitrile] returned a melting point of 190 to 192 °C. In the series on Bmi-1 protein, the EC50 is 1 to 10 nM.
`COc1cccc(Nc2cc(C#N)cc(-c3c(C)nc4ccc(F)cn34)n2)c1` [compound 650, 2-(6-fluoro-2-methylimidazo[1,2-a]pyridin-3-yl)-6-[(3-methoxyphenyl)amino}pyridine-4-carbonitrile] registered a melting point of 247 to 250 °C. Also, the concentration giving a half-maximal response (EC50) in the series on Bmi-1 protein was 100 to 3000 nM.

For the origin of these results see patent publication US10584115B2, “Substituted pyridine and pyrazine BMI-1 inhibitors” (PTC Therapeutics, Inc., priority 2013, dated 2020).
